{"source": "paper PMC12640828", "about": "(Frontiers in Pharmacology, 2025)", "key": {"[1]": {"molecular_target": "T1, insulin-degrading enzyme (IDE) (Homo sapiens, UniProt P14735)", "T1 construct": "purchased R&D Systems, Minneapolis, MN", "T1 sequence (P14735 1-1019)": "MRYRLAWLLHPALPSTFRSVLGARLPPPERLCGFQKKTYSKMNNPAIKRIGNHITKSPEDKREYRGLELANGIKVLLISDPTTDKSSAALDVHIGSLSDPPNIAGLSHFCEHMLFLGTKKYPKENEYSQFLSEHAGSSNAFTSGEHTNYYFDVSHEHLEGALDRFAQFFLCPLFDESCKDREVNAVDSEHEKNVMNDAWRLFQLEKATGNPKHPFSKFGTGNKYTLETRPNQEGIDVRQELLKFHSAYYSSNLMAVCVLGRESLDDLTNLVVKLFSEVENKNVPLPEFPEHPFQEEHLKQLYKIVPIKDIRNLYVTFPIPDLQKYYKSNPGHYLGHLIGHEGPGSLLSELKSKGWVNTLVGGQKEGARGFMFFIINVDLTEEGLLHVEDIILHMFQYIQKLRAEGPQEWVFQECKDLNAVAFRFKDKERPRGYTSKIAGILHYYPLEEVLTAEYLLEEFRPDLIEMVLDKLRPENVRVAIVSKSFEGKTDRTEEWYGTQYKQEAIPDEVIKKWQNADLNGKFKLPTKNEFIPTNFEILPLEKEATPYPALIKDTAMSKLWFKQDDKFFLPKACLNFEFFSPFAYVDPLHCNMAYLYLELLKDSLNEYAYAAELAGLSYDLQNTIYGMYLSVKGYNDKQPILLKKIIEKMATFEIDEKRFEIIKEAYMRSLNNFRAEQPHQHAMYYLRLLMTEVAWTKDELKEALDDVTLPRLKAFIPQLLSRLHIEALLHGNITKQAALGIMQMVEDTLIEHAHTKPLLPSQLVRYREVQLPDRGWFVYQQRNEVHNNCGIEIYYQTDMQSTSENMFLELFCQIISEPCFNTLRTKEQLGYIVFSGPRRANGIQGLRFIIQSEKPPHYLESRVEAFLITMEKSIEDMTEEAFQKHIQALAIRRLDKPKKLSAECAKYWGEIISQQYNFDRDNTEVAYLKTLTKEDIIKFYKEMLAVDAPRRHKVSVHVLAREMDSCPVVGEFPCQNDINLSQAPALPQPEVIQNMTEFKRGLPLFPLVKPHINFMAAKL", "assay": "In vitro peptide digestion with IDE followed by LC-MS", "format": "in vitro ADME", "conditions": "100 µM peptide, 0.1 µg IDE, 50 mM Tris-Cl pH 7.5 + 1M NaCl, 25 µL, 37 °C, sampled at 5, 30, 60 min", "protocol": "An equal volume (25 µL) of 10% formic acid (Sigma) was added. After heating the reaction at 95 °C for 5 min, desalting of the peptides was carried out using Pierce C18 tips (87782; ThermoFisher Scientific). For peptide-desalting, 30 µL of 2.5% trifluoroacetic acid (TFA) was added in a total 50 µL of the peptide-digestion reaction. Pierce C18 tips were wetted in 50% acetonitrile:water soln, equilibrated with 0.1% TFA, and peptides were passed through the C18 tips. After washing the C18 tips with 0.1% TFA in 5% acetonitrile:water soln, peptides were eluted in 10 µL of 0.1% formic acid in 75% acetonitrile: water soln and stored at −80 °C. Desalted peptide samples were submitted for Liquid Chromatography Mass Spectrometry (LC-MS) analysis to the University of South Carolina-Mass Spectrometry Center."}, "Rat cardiac H9C2 cells": {"test_system": "Rat cardiac H9C2 cells", "assay": "MTT-cell viability assay", "format": "cell-based", "conditions": "1 μM, 3 μM and 10 µM, 4 days, MTT colorimetric", "protocol": "The rat cardiac H9C2 cells were maintained in Dulbecco’s Modified Eagle Medium (DMEM) cell culture medium (supplemented with 10% fetal bovine serum, 4.5 gm/liter D-glucose, and 1x penicillin-streptomycin antibiotic solution) and grown at 37 °C in a humidified incubator with 5% CO2. Cells in a 96-well plate were treated with 1 μM, 3 μM, and 10 µM concentrations of NMEG-CGRP and CMEG-CGRP and further grown for 4 days. The cell viability assay was performed using colorimetric MTT-cell proliferation kit I (Roche-Millipore Sigma, St Louis, MO) following the vendor’s protocol."}, "[2]": {"test_system": "TAC pressure-overload induced HF in mice", "assay": "TAC pressure-overload heart failure in mice: echocardiography and heart weight", "format": "in vivo, male C57BL/6 mice", "conditions": "3.6 mg/kg/mouse s.c. on alternate days for 28 days", "protocol": "Eight-week-old male C57BL/6 mice, purchased from Charles River Laboratories (Wilmington, MA), were housed in the institutional animal facility on a 12 h light/12 h dark cycle with free access to food and water throughout. Animal protocols were approved by the University of South Carolina-Institutional Animal Care and Use Committee (IACUC) following the NIH guidelines.\nA transverse aortic constriction (TAC) procedure was followed to induce pressure-overload HF in mice ([Li et al., 2013]; [Kumar et al., 2019b]; [Kumar et al., 2020]). Briefly, mice were anesthetized under 1%–2% isoflurane and the chests of these mice were opened through the suprasternal notch. A 7–0 polypropylene suture was passed under the aortic arch between the left common carotid and innominate arteries and tied around the aorta and a 27-G needle. After tying a knot, the needle was removed, and the chest was closed using a 6–0 suture. Mice were kept on the 37 °C heat pad until they recovered and buprenorphine (0.1 mg/kg/mouse) was given subcutaneously (s.c.) as post-operative care. An identical procedure except tying a knot around the aortic arch was performed in the Sham groups of mice. Two days post-TAC, mice were divided into four groups (6–7 mice/gr): i- Sham, ii- Sham+NMEG-CGRP, iii- TAC, and iv- TAC+NMEG-CGRP. A stock solution 1 mg/mL of NMEG-CGRP was prepared in sterile 0.9% NaCl soln and NMEG-CGRP at 3.6 mg/kg/mouse dose was injected s.c. in the Sham+NMEG-CGRP and TAC+NMEG-CGRP groups of mice on alternate days for a total of 28 days. […]\nThe short axis 2D echocardiography was performed before TAC procedure (day 0) and then weekly after start of NMEG-CGRP administration in all groups of mice under 1%–2% isoflurane anesthesia using Vevo 3100 High-Resolution Imaging System (VisualSonics Inc., Toronto, Canada) and cardiac parameters were calculated using VisualSonics Measurement Software ([Li et al., 2013]; [Kumar et al., 2020])."}, "Solubility in water": {"assay": "Solubility in water", "format": "physicochemical"}}, "data": [{"smiles": "CC(C)C[C@H](NC(=O)CNC(=O)[C@H](C)NC(=O)[C@H](CC(C)C)NC(=O)[C@H](CCCNC(=N)N)NC(=O)[C@H](Cc1cnc[nH]1)NC(=O)[C@@H](NC(=O)[C@@H](NC(=O)[C@@H]1CSSC[C@H](NC(=O)[C@H](C)N)C(=O)N[C@@H](CC(=O)O)C(=O)N[C@@H]([C@@H](C)O)C(=O)N[C@@H](C)C(=O)N[C@@H]([C@@H](C)O)C(=O)N1)C(C)C)[C@@H](C)O)C(=O)N[C@@H](CC(C)C)C(=O)N[C@@H](CO)C(=O)N[C@@H](CCCNC(=N)N)C(=O)N[C@@H](CO)C(=O)NCC(=O)NCC(=O)N[C@H](C(=O)N[C@H](C(=O)N[C@@H](CCCCN)C(=O)N[C@@H](CC(N)=O)C(=O)N[C@@H](CC(N)=O)C(=O)N[C@@H](Cc1ccccc1)C(=O)N[C@H](C(=O)N1CCC[C@H]1C(=O)N[C@H](C(=O)N[C@@H](CC(N)=O)C(=O)N[C@H](C(=O)NCC(=O)N[C@@H](CO)C(=O)N[C@@H](CCCCN)C(=O)N[C@@H](C)C(=O)N[C@@H](Cc1ccccc1)C(N)=O)C(C)C)[C@@H](C)O)C(C)C)C(C)C)C(C)C", "note": "[human α-CGRP, reference compound]", "values": [{"measurement": "Time to complete digestion of full-length peptide by IDE", "setting": "[1]", "result": "5 to 30", "unit": "min"}]}, {"smiles": "COCCNCC(=O)N(CCOC)CC(=O)N[C@@H](C)C(=O)N[C@H]1CSSC[C@@H](C(=O)N[C@H](C(=O)N[C@H](C(=O)N[C@@H](Cc2c[nH]cn2)C(=O)N[C@@H](CCCNC(=N)N)C(=O)N[C@@H](CC(C)C)C(=O)N[C@@H](C)C(=O)NCC(=O)N[C@@H](CC(C)C)C(=O)N[C@@H](CC(C)C)C(=O)N[C@@H](CO)C(=O)N[C@@H](CCCNC(=N)N)C(=O)N[C@@H](CO)C(=O)NCC(=O)NCC(=O)N[C@H](C(=O)N[C@H](C(=O)N[C@@H](CCCCN)C(=O)N[C@@H](CC(N)=O)C(=O)N[C@@H](CC(N)=O)C(=O)N[C@@H](Cc2ccccc2)C(=O)N[C@H](C(=O)N2CCC[C@H]2C(=O)N[C@H](C(=O)N[C@@H](CC(N)=O)C(=O)N[C@H](C(=O)NCC(=O)N[C@@H](CO)C(=O)N[C@@H](CCCCN)C(=O)N[C@@H](C)C(=O)N[C@@H](Cc2ccccc2)C(N)=O)C(C)C)[C@@H](C)O)C(C)C)C(C)C)C(C)C)[C@@H](C)O)C(C)C)NC(=O)[C@H]([C@@H](C)O)NC(=O)[C@H](C)NC(=O)[C@H]([C@@H](C)O)NC(=O)[C@H](CC(=O)O)NC1=O", "note": "[NMEG-CGRP]", "values": [{"measurement": "Viability of cardiac cells (MTT optical density vs control)", "setting": "Rat cardiac H9C2 cells", "result": "did not inhibit the growth of H9C2 cells"}, {"measurement": "Time to complete digestion of full-length peptide by IDE", "setting": "[1]", "result": "> 60", "unit": "min"}, {"measurement": "Abnormalities / adverse effect in mice during NMEG-CGRP delivery", "setting": "[2]; Sham- and TAC-mice", "result": "did not observe any abnormalities"}, {"measurement": "EF, Sham vs. Sham+NMEG-CGRP", "setting": "[2]; sham mice, day 30", "result": "non-significant"}, {"measurement": "Fractional shortening (FS), Sham vs. Sham+NMEG-CGRP", "setting": "[2]; sham mice, day 30", "result": "non-significant"}, {"measurement": "Solubility in water", "setting": "Solubility in water", "result": "soluble in water"}]}]}
